In patent publication US4839342A, “Method of increasing tear production by topical administration of cyclosporin” (University of Georgia Research Foundation, Inc., priority 1987, dated 1989):

Test system: aqueous tear production
Test: Schirmer tear test in dogs with aqueous tear deficiency / KCS
Type: in vivo, dog
Text: The Schirmer tear test is a test of aqueous tear production. The test depends upon observing the extent of wetting of a strip of filter paper placed over the lower lid of an eye for a specified time. Standardized strips are commercially available. The strip is folded at a notched marking and is then placed over the edge of the lateral one-third of the eyelid. The strip is usually left in place for a period of time while the patient looks straight ahead in dim light.
The degree of wetting of the paper is measured in mm from the notch. For human patients, a normal end point is 5 mm of wetting at five minutes. For canine patients, the normal tear production is 14 to 20 mm. of wetting at one minute.

[1] = Example 3 English Bulldog, three drops of 2% pilocarpine by mouth, after two hours

CC[C@@H]1C(=O)OC[C@@H]1Cc1cncn1C [pilocarpine]
Schirmer tear test value, left eye [1]: 10 mm/minute | Schirmer tear test value, right eye [1]: 0 mm/minute | Schirmer tear test values, both eyes (Example 4 Miniature Poodle, one drop 2% pilocarpine by mouth two times daily with ophthalmic petrolatum, after two weeks): 0 mm/minute

C[C@@H]1C[C@H]2[C@@H]3CCC4=CC(=O)C=C[C@]4(C)[C@@]3(F)[C@@H](O)C[C@]2(C)[C@@]1(O)C(=O)CO [dexamethasone]
benefit of treatment (tear deficiency, conjunctivitis) (Example 1 Poodle, topical, both eyes twice daily for nine weeks): without benefit
